For orientation: EC50 means the concentration giving half of the maximal effect.

This assay has as its target T1, hRORγt (Homo sapiens, UniProt P51449).
T1 construct: expressed in transfected cells; host or cells: CHO-S (Chinese hamster ovary cells, Invitrogen R80007), transiently transfected with pM-hRORγt and pG5-luc
T1 sequence (P51449 1-497 isoform P51449-2): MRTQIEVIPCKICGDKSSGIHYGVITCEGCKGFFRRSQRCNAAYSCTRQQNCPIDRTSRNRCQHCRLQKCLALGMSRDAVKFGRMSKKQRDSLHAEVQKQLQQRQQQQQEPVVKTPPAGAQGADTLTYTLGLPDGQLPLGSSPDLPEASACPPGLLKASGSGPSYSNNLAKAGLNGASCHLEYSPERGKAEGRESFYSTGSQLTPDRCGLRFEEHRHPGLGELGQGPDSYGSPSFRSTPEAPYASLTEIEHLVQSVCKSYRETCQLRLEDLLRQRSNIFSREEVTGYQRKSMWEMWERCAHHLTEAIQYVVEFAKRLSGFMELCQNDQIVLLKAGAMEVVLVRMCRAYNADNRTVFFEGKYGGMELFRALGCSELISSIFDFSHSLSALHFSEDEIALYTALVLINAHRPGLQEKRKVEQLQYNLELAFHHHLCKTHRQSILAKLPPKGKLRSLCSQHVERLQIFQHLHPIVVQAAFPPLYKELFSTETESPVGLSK
In words: Luciferase assay (reporter gene, recombinant plasmid hRORγt). The note with it: CHO-S cells transfected with pM-hRORγt and pG5-luc; overnight culture with compound; ONE-Glo luciferase readout; read-out: RORgt EC50. The assay is classed as cell-based. The source says:
This assay method used luciferase as a reporter gene to detect the expression of cells transfected with a gene recombinant plasmid at gene transcription level, wherein the recombinant plasmid was constructed by the promoter of a target gene and a luciferase gene. The experiment was primarily related to the transfection of the recombinant plasmid hRORγt (“RORgt”).
I. Reagents and Materials:
1. Cells: Chinese hamster ovary cells (CHO—S, Invitrogen, Cat #R80007), suspension-cultured in CD-CHO culture medium containing 8 mM L-glutamine and 1×HT.
a) Luciferase reporter gene plasmid pG5-luc: reporter plasmid (Promega).
b) Target gene plasmid pM-hRORγt: human RORgamma.
4. Transfection reagent: TransIT-CHO transfection kit (Minis Bio Co.) containing Trans-It reagent and Mojo reagent (Minis, MIR2170).
7. Luciferase kit: (Promega ONE-Glo, 100 ml, Catalog #E6120): containing luciferase substrate (Coenzyme A, ATP and luciferin) and a reaction buffer.
II. Specific Experimental Steps
1. Cell seeding: 18 to 24 h before transfection, a 125 mL shake flask was charged with CHO—S cells having a concentration of 0.5×10^6 cells/mL to 0.6×10^6 cells/mL, and CD-CHO culture medium (the culture medium only contained L-glutamine and an HT supplement) was added thereto to a final volume of 18 mL. The shake flask was placed on a shaker, and the cells were passaged overnight under a condition of 120 rpm, 37° C. and 8% CO2.
2. Cell transfection: At this time, the cell concentration of the above-mentioned solution should be 1.2×10^6 cells/mL to 1.5×10^6 cells/mL. CD-CHO culture medium (containing L-glutamine and an HT supplement) was used for dilution until the cell concentration reached 1×10^6 cells/mL.
B. Preparation of transfection reagent (TransIT-CHO: Mojo: DNA complex), which was formulated immediately before transfection.
1. Trans-IT reagent was warmed to room temperature in advance and shaken to be uniformly mixed before use.
2. Preparation for DNA transfection: the following reagents were mixed in a 1.5 mL sterile centrifuge tube:
27 μg of luciferase reporter gene plasmid pG5-luc: 27 μL, 1 mg/mL solution,
0.75 μg of the expression plasmid of the target gene (pM-hRORγt, 7.5 μL, 0.1 mg/mL solution).
3. The following reagents were charged into a 15 mL sterile centrifuge tube:
83 μL of TransIT-CHO reagent
the DNA complex prepared in step 2
4. The mixture was mixed well and placed at room temperature for 5 min.
5. 13.9 μL of Mojo reagent was charged into a sterile centrifuge tube, mixed slightly, and placed at room temperature for 20 min to form a transfection complex.
1. A 125 mL shake flask was charged with the transfection complex prepared in step B dropwise while being shaken slowly.
2. The cells were cultured for 4 h in a shaker under a condition of 37° C. and 8% carbon dioxide.
3. After 4 h, the cells were transferred to a 50 mL sterile centrifuge tube, centrifuged at 1200 rpm for 4 min, and the supernatant was aspirated.
4. The cells were re-suspended in 6 mL of a freezing medium (CD-CHO, L-glutamine, HT supplement, and 10% DMSO), and the cell density should be 3×10^6 cells/ml at this time.
5. The mixture was dispensed into 12 tubes with 0.5 mL in each tube. The tubes were placed in a refrigerator at −80° C. to be slowly frozen overnight, and then were transferred into liquid nitrogen for long-term storage.
D. Luciferase activity assay (96-well flat plate)
1. The cells were thawed at 37° C.
2. The cells (1.5×10^6 cells/0.5 mL) were diluted with 2 mL of freshly formulated culture medium (CD-CHO, L-glutamine and an HT supplement) to a volume of 2.5 mL, and then were transferred to a 15 mL sterile centrifuge tube.
3. Cell counting: If the cells were completely viable, a concentration of 6×10^5 cells/mL should be achieved. […] If necessary, the cells were diluted with culture medium.
4. Cell seeding: 100 μl cells (4×10^4 cells) were added to each well.
(Reporter assays use an easily measured gene product as a stand-in for the process of interest.)
`CCc1ccc2c(c1)CC(C)N2S(=O)(=O)c1ccc(OCC2CCOCC2)c(CO)c1` (centres unmarked): the EC50 was found to be 1.61e+06 pM.
The value for `C[C@H]1CCc2cc(CC(F)(F)F)ccc2N1S(=O)(=O)c1ccc(OCC2CCOCC2)c(CO)c1` was 316000 pM.
The value for `CCc1ccc2c(c1)N(S(=O)(=O)c1ccc(OCC3CCOCC3)c(CO)c1)[C@@H](C)CC2` was 223000 pM.
The same measure for `CC[C@H]1CCc2cc(C(F)(F)F)ccc2N1S(=O)(=O)c1ccc(OCC2CCOCC2)c(CO)c1`: 71000 pM; for `CCC1CCc2cc(C(C)C)ccc2N1S(=O)(=O)c1ccc(OCC2CCOCC2)c(CO)c1` (centres unmarked): 3500 pM.

For the origin of these results see patent publication US11396503B2, “Sulfonyl substituted bicyclic compound which acts as ROR inhibitor” (CHIA TAI TIANQING PHARMACEUTICAL GROUP CO., LTD, priority 2017, dated 2022).
